Experimental data from patent EP0304244A2, “Propanediol derivatives, their production and use” (Takeda Chemical Industries, Ltd., priority 1987, dated 1989).

Key:
[1] = test system: HL-60 cells (myelogenous leukemia cell lines); experiment: Inhibition of multiplication of HL-60 cells ([3H]thymidine incorporation); assay type: cell-based; conditions: Homo sapiens; HL-60 cells 2 x 10⁵cells/mℓ in GIT medium; 20 hours incubation then 4 hours with [³H]thymidine; 50% of the control group; read-out: Inhibition of Propagation of HL-60 cells(IC₅₀ : µg/mℓ)
Procedure: The effect of the compound of this invention in inhibiting multiplication of myelogenous leukemia cells (HL-60) is shown in Table 1. The assay was conducted as follows. HL-60 cells (myelogenous leukemia cell lines) were suspended (2 x 10⁵cells/mℓ) in a GIT culture medium (Wako Pure Chemical Industries, Ltd.). Each hole of a 96-hole Microwell plate was inoculated with 0.2 mℓ of the suspension. The plate was incubated statically for 20 hours (37°C and 5% CO₂), to which was added 1 µCi of [³H]thymidine(5 Ci/mmol.), and the incubation was continued for further 4 hours. For determination of the amount of thymidine incorporated into cells, acid-insoluble fractions were collected with a glass-filter, and the radioactivity was determined by means of a liquid scintillation counter. The concentration of the drug required for reducing the radioactivity incorporated into cells to 50% of the control group was assumed to be IC₅₀ value of the compound.

[2] = test system: MM46 cells; experiment: Antitumor action, intraperitoneal MM46 in mice, life-span and survivors; assay type: in vivo; conditions: C3H/He mice, 1 x 10⁴ MM46 cells i.p.; 0.25 mg/mouse for 4 consecutive days from the second day after inoculation; 60th day after inoculation
Procedure: C3H/He mice (a group consisting of 5 mice) were inoculated intraperitoneally with 1 x 10⁴ MM46 cells per mouse, and given 0.25 mg/mouse of a drug for 4 consecutive days starting from the second day after the inoculation. Shown in Table 3 are the life-span prolongation ratio against the control group without treatment (provided that calculation was made on mice whose survival days were not longer than 60 days) and the number of surviving mice on the 60th day after the inoculation of MM46 cells.

[3] = test system: Sarcoma 180 cells; experiment: Antitumor action, intraperitoneal Sarcoma 180 in mice, life-span and survivors; assay type: in vivo; conditions: ICR mice, 1 x 10⁵ Sarcoma 180 cells i.p.; for Life-span prolonggation ratio (T/C,%): 0.33 mg/mouse i.p. three times (1 hour, 1 day, 2 days after inoculation), calculated only on died mice; for 60th day number of survivors/number of mice tested: 0.33 mg/mouse i.p. three times, 60th day after the initiation of the test
Procedure: ICR mice (a group consisting of 5 mice) were inoculated intraperitoneally with 1 x 10⁵ Sarcoma 180 cells per mouse. Then, 0.33 mg/mouse of a compound dissolved in physiological saline was intraperitoneally administered three times, i.e. 1 hour, 1 day and 2 days after the inoculation. Shown in Table 2 are the lifespan prolongation ratio against the control group without treatment and the number of surviving mice on the 60th day after the initiation of the test.

[4] = test system: Sarcoma 180 cells; experiment: Antitumor action, subcutaneous Sarcoma 180 in mice, oral dosing, tumor weight; assay type: in vivo; conditions: ICR mice, 1 x 10⁵ Sarcoma 180 cells in dorsal subcutis; 0.3 mg/mouse orally 9 times from the 8th day; tumor weighed on the 21st day
Procedure: ICR mice (a group consisting of 6 mice) were inoculated with 1 x 10⁵ Sarcoma 180 cells per mouse in the dorsal subcutis, and then 0.3 mg/mouse of a test compound dissolved in physiological saline was orally administered 9 times starting from the 8th day (8th to 10th, 13th to 17th and 20th days). On the 21st day, a tumor was enucleated, and the weight of the tumor was measured. The ratio of tumor weight of the treated group against that of the control group without treatment by drug is shown in Table 4.

| Structure (SMILES) | IC50 [1] [µg/mL] | 60th day No. of survivors/No. of mice tested [2] | Life-span prolonggation ratio (T/C,%) [3] [%] | 60th day number of survivors/number of mice tested [3] | Weight of tumor (T/C,%) [4] [%] |
| --- | --- | --- | --- | --- | --- |
| CCCCCCCCCCCCCCCCCCOCCCOCCCCC[N+](C)(C)C.[Cl-] [Compound of Working Example 7, N-[5-[3-(octadecyloxy)propoxy]pentyl]N,N,N-trimethylammonium chloride] | 2.5 | – | – | – | – |
| CCCCCCCCCCCCCCCCCCOCCCOCCCC[N+](C)(C)C.CS(=O)(=O)[O-] [Compound of Working Example 1, N-[4-[3-(octadecyloxy)propoxy]butyl]N,N,N-trimethylammonium methanesulfonate] | 1.25 | 5/5 | 295 | 2/5 | – |
| CCCCCCCCCCCCCCCCCCOCCCOCCCCCC[N+](C)(C)C.[Br-] [Compound of Working Example 3, 6-[3-(octadecyloxy)propoxy]hexyl-N,N,N-trimethylammonium bromide] | 1.25 | – | 342 | 2/5 | 24 |
| CCCCCCCCCCCCCCCCCCOCCCOCCCC[n+]1ccccc1.CS(=O)(=O)[O-] [Compound of Working Example 2, N-[4-[3-(octadecyloxy)propoxy]butyl]pyridinium methanesulfonate] | 0.62 | – | – | – | – |
| CCCCCCCCCCCCCCCCCCOCCCOCCC[N+](C)(C)C.[Br-] [Compound of Working Example 4, 3-[3-(octadecyloxy)propoxy]propyl-N,N,N-trimethylammonium bromide] | 1.25 | – | – | – | – |
| CCCCCCCCCCCCCCCCCCOCCCOCCCCC[n+]1ccccc1.[Cl-] [Compound of Working Example 8, N-[5-[3-(octadecyloxy)propoxy]pentyl]pyridinium chloride] | 1.25 | – | – | – | – |
| CCCCCCCCCCCCCCCCCCOCCCOCCCCCCCC[N+](C)(C)C.[Cl-] [Compound of Working Example 5, N-[8-[3-(octadecyloxy)propoxy]octyl]N,N,N-trimethylammonium chloride] | 5 | – | – | – | – |
